Consider one substance from US11642392B2, “Therapeutic agent of uremia containing alarin as the main ingredient” (JU TIDE CO., LTD., priority 2017, dated 2023).

The test system of assay [1] is Cisplatin-induced uremia in the Sprague-Dawley rat model. To be noted: single dose of 10 μg/1 mL/head and 20 μg/1 mL/head IV, vs control group of excipient. On the procedure:
(§1) The intravenous administration was done by fixing an animal into a correction frame, and slowly injecting at a rate of within 1 mL/min through the micro vein using a syringe equipped with 26 gauges needle. The intraperitoneal administration was performed by fixing the animal by a transdermal skin fixation method and intraperitoneally injecting using a syringe equipped with 26 gauges needle.
Serum obtained from the centrifugation was tested for blood urea nitrogen (BUN) and […] (CRE) using a blood biochemical analyzer (7180 Hitachi, Japan).

Assay [2] has the same test system. On the procedure:
as §1
Finally, animals were inhaled with ether on an necropsy day to anesthetize and euthanize, and kidneys were extracted and fixed in a 10% neutral buffered formalin solution, and the fixed tissues were cut, dehydrated, paraffin embedded and hematoxylin & eosin stained to make a specimens for histopathological examination after these histological treatment. And then, the obtained specimen is subjected to speculum using an optical microscope (Olympus BX53, Japan).

For “alarin (human) trifluoroacetate salt [test substance]”, in assay [1], the blood biochemical level entry is “tendency to improve”. Further, in assay [2] (10 and 20 μg/1 mL/head IV single dose, across doses), the “histopathological examination results, lesion level” value is “dose-related change trend and significant changes in lesion level”. Besides, the “level of lesion (histopathological examination of kidney)” value in assay [2] (high dose group (20 μg/1 mL/head IV, single dose), necropsy Day 7, H&E, vs control group) is given as “significantly lower”.
